Results as given in paper PMC7490411 (Signal Transduction and Targeted Therapy, 2020).

Columns and labels:
Assay in all cases: KINOMEscan
Type in all cases: binding
Conditions in all cases: 1000 nM
PHKG2 = test system: PHKG2
BTK = biological target: T1, BTK (Homo sapiens, UniProt Q06187)
T1 construct: purchased Invitrogen (Carlsbad, CA, USA)

ACVR2B = test system: ACVR2B
DYRK1B = test system: DYRK1B
PDPK1 = test system: PDPK1
LTK = test system: LTK
p38-delta = test system: p38-delta
HASPIN = test system: HASPIN
GRK3 = test system: GRK3
YES = test system: YES
ERK1 = test system: ERK1
AMPK-alpha1 = test system: AMPK-alpha1
PAK1 = test system: PAK1
AKT2 = test system: AKT2
PLK4 = test system: PLK4
EPHB1 = test system: EPHB1
MAP3K3 = test system: MAP3K3
[1] = test system: RPS6KA5(Kin.Dom.1-N-terminal)
MYO3A = test system: MYO3A
SYK = test system: SYK
SNARK = test system: SNARK
MST4 = test system: MST4
YANK3 = test system: YANK3
PIK3CA(C420R) = test system: PIK3CA(C420R)
MAPKAPK2 = test system: MAPKAPK2
MEK6 = test system: MEK6
TIE1 = test system: TIE1
PIP5K2B = test system: PIP5K2B
FLT4 = test system: FLT4

T1 sequence (Q06187 whole entry): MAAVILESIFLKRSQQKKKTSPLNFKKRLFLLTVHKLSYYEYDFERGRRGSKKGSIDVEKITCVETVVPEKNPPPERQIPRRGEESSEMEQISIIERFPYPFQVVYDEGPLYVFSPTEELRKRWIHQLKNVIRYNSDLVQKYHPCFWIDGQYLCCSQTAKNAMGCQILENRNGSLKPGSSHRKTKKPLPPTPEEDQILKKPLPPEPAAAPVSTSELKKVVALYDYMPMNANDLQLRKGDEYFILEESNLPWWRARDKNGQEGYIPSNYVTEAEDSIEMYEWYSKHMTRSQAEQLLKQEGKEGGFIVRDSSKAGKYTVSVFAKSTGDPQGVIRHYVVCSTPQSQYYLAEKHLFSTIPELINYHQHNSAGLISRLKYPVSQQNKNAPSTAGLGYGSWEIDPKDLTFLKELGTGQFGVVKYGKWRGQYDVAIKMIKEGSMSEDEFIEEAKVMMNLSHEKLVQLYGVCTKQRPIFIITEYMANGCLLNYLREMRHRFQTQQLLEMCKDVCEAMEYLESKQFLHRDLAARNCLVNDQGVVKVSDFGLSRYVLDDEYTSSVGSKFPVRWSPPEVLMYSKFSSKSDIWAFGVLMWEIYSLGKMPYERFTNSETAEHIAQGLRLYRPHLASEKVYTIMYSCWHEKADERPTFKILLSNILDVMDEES

Structure (SMILES): C=CC(=O)Nc1cc(Nc2cc(-c3cccc(NC(=O)c4cc5c(s4)CCCC5)c3C)cn(C)c2=O)ccc1N1CCN(CC)CC1 [CHMFL-BTK-85]
- Percent Control (PHKG2): 100%
- percent of control binding at 1 µM (BTK): 0.9%
- Percent Control (ACVR2B): 99%
- Percent Control (DYRK1B): 99%
- Percent Control (PDPK1): 77%
- Percent Control (LTK): 100%
- Percent Control (p38-delta): 80%
- Percent Control (HASPIN): 100%
- Percent Control (GRK3): 100%
- Percent Control (YES): 17%
- Percent Control (ERK1): 93%
- Percent Control (AMPK-alpha1): 100%
- Percent Control (PAK1): 75%
- Percent Control (AKT2): 88%
- Percent Control (PLK4): 97%
- Percent Control (EPHB1): 100%
- Percent Control (MAP3K3): 100%
- Percent Control [1]: 90%
- Percent Control (MYO3A): 93%
- Percent Control (SYK): 100%
- Percent Control (SNARK): 100%
- Percent Control (MST4): 100%
- Percent Control (YANK3): 89%
- Percent Control (PIK3CA(C420R)): 98%
- Percent Control (MAPKAPK2): 86%
- Percent Control (MEK6): 78%
- Percent Control (TIE1): 87%
- Percent Control (PIP5K2B): 100%
- Percent Control (FLT4): 97%
